According to the METLIN SMRT retention time set (Domingo-Almenara et al. 2019):

Experiment: gradient 5% acetonitrile 3 min, to 50% in 2 min, to 85% in 15 min, held 3 min, 100 µL/min
Conditions: column: Zorbax Extend-C18 2.1 x 50 mm; eluents: water / acetonitrile, 0.1% formic acid
How it was run: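 The system's dead and dwell volumes were 40 μL and 900 μL, with a Zorbax Extend-C18 column (2.1 × 50 mm, 1.8 μm) run at 100 μL/min in water and acetonitrile containing 0.1% formic acid each. Pure standards were analyzed in mixtures of ~100 molecules by HPLC–quadrupole time-of-flight mass spectrometry in positive and negative ionization mode. Retention time was assigned from computationally picked, manually inspected adduct peaks.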

SMILES	RP-LC retention time [s]
COC(=O)C1=CN(c2ccc(F)c(F)c2)c2ccccc2S1(=O)=O	789
CCOc1ccc(/C=C/C(=O)Nc2nc(-c3ccc4c(c3)N(CC)C(=O)CO4)cs2)cc1OC	1020
CC1CCc2nc3ncn(CC(=O)NCc4cccc(Br)c4)c(=O)c3cc2C1 (centres undefined)	825
CCn1cnc2ccc(-c3noc(COc4ccc(OC)cc4)n3)cc21	743
Cc1ccc(-c2nc3ncccn3c2Nc2c(C)cccc2C)cc1	820
COc1ccc(OC)c(NC(=O)C2(CCO)CCN(c3ncccn3)C2)c1 (centres undefined)	631
Cc1ccc(S(=O)(=O)CC(=O)Nc2nc(-c3ccc4c(c3)OCO4)cs2)cc1	924
COc1ccc(C(=O)NC2(c3nc(-c4ccncc4)no3)CCCCC2)cc1OC	827
COc1cc2nc(C(=O)N3CCCCC3)cc(Nc3cccc(C(F)(F)F)c3)c2cc1OC	752
O=C(NCc1cccc(F)c1)c1cn2ccncc2n1	672
COc1ccc(S(=O)(=O)N2CC3CN(C(=O)c4cccc(F)c4)CC(C2)O3)cc1	794
Cc1ccc(-c2ccc3nnc(CCC(=O)NCCCOC(C)C)n3n2)cc1C	795
Cc1ccc(NC(=O)Cn2nc3c(Oc4ccccc4C)nccn3c2=O)c(C)c1	873
CCN(CC)CCNC(=O)c1nc(-c2oc3ccc(C)cc3c2C)no1	695
Cc1sc(NC(=O)C(C)C)nc1-c1ccc2c(c1)NC(=O)C(C)O2 (centres undefined)	831
CCN1c2ccc(C)cc2C(=O)NC12CCN(C(=O)c1ccc(F)c(Cl)c1)CC2	888
Cc1ccc(CNC(=O)c2cc3sccc3n2Cc2ccc(F)cc2)cc1	888
O=S(=O)(c1cccc(F)c1)N1CC(c2nc(CCOCC3CC3)no2)C1	907
O=c1[nH]c2ccc(NCc3ccc(-c4ccccc4F)o3)cc2[nH]1	687
CC(=O)Nc1nnc(C2=COCCO2)o1	515
CCn1ccc2oc(C)c(C(=O)NCc3cccc(Br)c3)c2c1=O	1060
O=C(C1CCCN(c2nn3c(=O)c4c(nc3s2)CCCC4)C1)N1CCC2(CC1)OCCO2 (centres undefined)	674
Cc1cccc(-n2ccn(CC#N)c(=O)c2=O)c1C	639
CCCS(=O)(=O)Nc1ccc(F)c(C(=O)c2c[nH]c3ncc(-c4ccc(Cl)cc4)cc23)c1F	1130

SMILES	RP-LC retention time [s]
O=C(Nc1ccc2sccc2c1)c1coc2ccccc2c1=O	1070
Cc1cc(C)n(CCNC(=O)c2ccsc2)n1	593
COc1ccc(CC(=O)N2C[C@@H]3C[C@H]2C[C@@H]3NS(C)(=O)=O)cc1	647
COCC1(O)CCOC2(CCN(Cc3ccc(C)c(C)c3)CC2)C1 (centres undefined)	627
COc1cccc(C(=O)NCc2ccc3[nH]c4c(c3c2)CCCC4)c1OC	910
Cc1cnc(C2CN(C(=O)c3ccsc3)C2)n1CC1CC1	595
COC(=O)c1cc(OCc2cccc(OC)c2)c2cc(OC)ccc2n1	901
c1ccc(NN(Cc2ccncc2)c2ccccc2)cc1	774
CC(C)C(=O)Nc1cccc(N2CC(C(=O)Nc3ccc(C(C)C)cc3)CC2=O)c1 (centres undefined)	886
Cc1nc(-c2cn(C)c3ncccc23)sc1C(=O)Nc1cc(F)ccc1F	944
CCN1C(=O)c2cccnc2Sc2cc(NC(=O)Cc3ccc(C)cc3)ccc21	855
CCCN(CC1CCOC1)C(=O)Nc1cc(F)cc(F)c1 (centres undefined)	871
O=C(Cc1cccs1)Nc1ccc2c(c1)CCC(=O)N2	620
Cc1cc(C)cc(N2CCC(NC(=O)c3ccc(Br)o3)C2=O)c1 (centres undefined)	894
CCn1c(=O)c(C)nc2cc(-c3noc(/C=C/c4ccc(OC)c(OC)c4)n3)ccc21	1010
Cc1cccc(CNC(=O)C2CCCN(S(=O)(=O)c3cn(C(C)C)cn3)C2)c1 (centres undefined)	781
C=CCN(Cc1nc(-c2ccc(C)cc2)no1)C(=O)Nc1ccc(C)cc1	1100
CCOC(=O)c1noc2nc(C)nc(Nc3cccc(CC)c3)c12	1140
Cn1c(C(=O)Nc2ccc3c(c2)OCCO3)cc2c(=O)oc3ccccc3c21	910
CCCN(CC1CC1)C(=O)c1nn(CCOC)c2c1CNCC2	567
COCC(=O)Nc1ccc2c(c1)N(C(=O)c1cccs1)CCC2	758
Cc1cccc(NC(=O)Cc2nnc(-c3cnccn3)o2)c1C	678
C=CCN1C(=O)COc2ccc(-c3csc(NC(=O)c4ccc(Cl)cc4)n3)cc21	1100

Further lines, results first:

RP-LC retention time [s]	SMILES
839	CCCC(=O)Nc1ccc2nc(N3CCN(CC(=O)NCCOC)CC3)cc(C(=O)O)c2c1
787	Cc1[nH]c(/C=C2\C(=O)Nc3ccc(S(=O)(=O)Cc4c(Cl)cccc4Cl)cc32)c(C)c1C(=O)N1CCC[C@@H]1CN1CCCC1
949	O=C(O)CSc1nnc(Br)n1-c1ccc(C2CC2)c2ccccc12
710	CN1CCCN(C(=O)c2cn3ccnc(-c4ccccc4)c3n2)CC1
754	Cn1cc(-c2nnc(SCC(=O)N3CCc4ccccc4C3)n2C)c(-c2ccccc2)n1
655	CCOCCCNC(=O)C1CCCN(c2nnc(C)c3c(C)n(-c4ccccc4)nc23)C1 (centres undefined)
585	CCNc1cc(N2CCCC(CCC(=O)NCc3cccc(F)c3)C2)ncn1 (centres undefined)
887	COc1cccc(CN2N=C(C(=O)N3CCOCC3)S(=O)(=O)c3cc(Cl)ccc32)c1
794	Cc1ccc(C2Cn3cnc(C(=O)N4CCC(C(=O)NC5CCCCC5)CC4)c3CO2)cc1 (centres undefined)
650	CCc1nc(N2CCC(C(=O)NCc3ccc(OC)c(OC)c3)CC2)c2c(C)scc2n1
927	Cc1ccc(CNC(=O)C2(C)CN(S(C)(=O)=O)CC(=O)N2CCCc2ccccc2)cc1 (centres undefined)
746	COc1ccc2nc(NC3=NCN(Cc4ccccc4)CN3)nc(C)c2c1
1110	CCc1nc(-c2csc(S(=O)(=O)N3CCCC(C(=O)Nc4ccc(C)c(C)c4)C3)c2)no1 (centres undefined)
873	CCCCNC(=O)CN1C(=O)C2CCCCN2c2ccc(S(=O)(=O)N3CCCC3)cc21 (centres undefined)
751	O=C(NCCc1ccco1)c1cc2n(n1)CCCN(Cc1cccc(F)c1)C2=O
1020	O=C(c1csc(N2CCN(c3ccccc3)CC2)n1)N1CCCCC1
755	O=C(Cn1ncc2c(c1=O)N(C1CC1)C(=O)CS2)NCCc1ccc(Cl)cc1
1130	Cc1ccc(S(=O)(=O)N2CCCC2)cc1-c1nnc(-c2ccc(Cl)cc2)o1
924	CCSc1nc2c(s1)c(=O)n(-c1ccccc1)c(=O)n2CC(=O)NCc1ccccc1
742	Cc1cc(C)n(-c2ccnc(N3CCC(C(=O)NCc4ccco4)CC3)n2)n1
748	Cn1c(=O)c2c(ncn2CC(=O)N2CCC(CCOc3ccc(F)cc3)C2)n(C)c1=O (centres undefined)

RP-LC retention time [s]	SMILES
767	Cn1cccc1C(=O)NCCn1c(=O)n(Cc2ccccc2)c2cccnc21
873	O=C(C1=NN(Cc2ccccc2Cl)c2ccccc2S1(=O)=O)N1CCOCC1
818	CN1CCN(C2=Cc3ccccc3Oc3ccc(Cl)cc32)CC1
1100	COC(=O)c1c(-c2ccccc2)noc1NCc1ccccc1OC
1060	Cc1ccc(-n2nc(N3CCCC(C(=O)Nc4cc(F)ccc4F)C3)ccc2=O)cc1Cl (centres undefined)
763	O=C(NC1CCN(c2cc(-c3ccccc3)[nH]n2)C1)c1cccc(Cl)c1 (centres undefined)
1110	COc1ccc(N2CCN(c3cc(SCC(=O)Nc4ccc(C(C)C)cc4)ncn3)CC2)cc1
711	O=C(c1cc(-c2ccccc2)n[nH]1)N1CC(c2nc(C3CC3)no2)C1
1120	Cc1nn(-c2nc(-c3ccc(Cl)cc3)cs2)c(C)c1CC(=O)N1CCCC1
749	CCc1cccc(NC(=O)Nc2cnn(-c3ncc(N4CCCC4)cn3)c2)c1
587	Cc1ccnc(N2CCC(C(=O)NCCCN(C)C3CCCCC3)CC2)n1
647	CC(C)(C)C(=O)N1CCCC1COc1ccc(C(=O)N2CCCC2)cc1 (centres undefined)
1040	COc1ccc(Cl)cc1NC(=O)N1CCCC(c2nnc(-c3ccccc3F)s2)C1 (centres undefined)
869	CC(C)NC(=O)c1ccc(OCC2CCCN(C(=O)c3ccc(F)c(F)c3)C2)cc1 (centres undefined)
868	COC(=O)c1nc(NC(=O)Cn2nc3c(cc2=O)CCCC3)sc1Cc1ccccc1
663	O=C(c1ccc(-c2cccnc2)nc1)N1CCN(c2ccccc2)CC1
595	CCOc1cc(=O)c(C(=O)N2CCC(C(N)=O)CC2)nn1-c1ccc(F)cc1
927	Cc1cc2c(c(=O)n(-c3ccccc3)c(=O)n2CC(=O)Nc2ccc(C(F)(F)F)cc2)n1C
1020	Cn1cc(-c2ccc(Cl)cc2)cc1C(=O)NCc1ccco1
616	CN1CCN(S(=O)(=O)c2ccc(C3CCCCC3)cc2)CC1
693	CCCN1CCN(C(=O)C2CCN(c3nc4ccc(-c5ccccc5)nc4s3)CC2)CC1
